The values below come from PubChem BioAssay (NCI).

Several values for one entry are separate records, joined by “and”; a condition that tells them apart may be missing. Equal values may be shown once.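 The compound was tested at five concentrations on cells cultured in 96-well plates, with a 48-hour exposure period. The concentration for 50% growth inhibition is given as GI50. The concentration for full growth arrest is given as TGI.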

Test systems include HOP-62 NSCLC; BT-549 breast; SK-MEL-28 melanoma; MDA-MB-435; RPMI-8226 leukemia; UACC-62 melanoma; DU-145 prostate; SW-620 colon; OVCAR-3 ovarian; EKVX NSCLC.
Experiment in all cases: NCI anticancer screen, dose series, 48 h

Regarding `C=C1CCC2C3(C)COC(c4c(OC)cccc4OC)OC3CCC2(C)C1C/C=C1/C(=O)OCC1O` (centres undefined), the GI50 in the experiment with HOP-62 NSCLC was 14.8 µM; in the experiment on BT-549 breast, 2.25 µM; in the experiment with SK-MEL-28 melanoma, 1.93 µM; in the experiment with MDA-MB-435 it was 2.88 µM; with RPMI-8226 leukemia, 2.01 µM; in the experiment on UACC-62 melanoma, 3.32 µM. The GI50 is 2.96 µM in the experiment with DU-145 prostate, 1.71 µM with SW-620 colon, 1.94 µM in the experiment on OVCAR-3 ovarian and 8.47 µM with EKVX NSCLC. The TGI stood at 28.7 µM with HOP-62 NSCLC; 5.64 µM with BT-549 breast; 4.05 µM in the experiment with SK-MEL-28 melanoma; 10.8 µM in the experiment on MDA-MB-435; 5.67 µM in the experiment on RPMI-8226 leukemia; 15 µM with UACC-62 melanoma. The TGI in the experiment with DU-145 prostate is 7.87 µM; in the experiment on SW-620 colon, 3.23 µM; with OVCAR-3 ovarian, 3.95 µM; in the experiment with EKVX NSCLC, 27.3 µM.
`CCC(C)[C@H](NC(=O)NC(=O)NC(=O)CI)C(=O)OC` (some centres undefined): the GI50 was 16.3 µM in the experiment on HOP-62 NSCLC; 10.6 µM with BT-549 breast; 13.6 µM in the experiment on SK-MEL-28 melanoma; 10.5 µM with MDA-MB-435; 3.16 µM in the experiment on RPMI-8226 leukemia; 11.3 µM with UACC-62 melanoma. The GI50 in the experiment with DU-145 prostate was 15.2 µM; in the experiment on SW-620 colon it was 1.86 µM; in the experiment with OVCAR-3 ovarian, 2.2 µM; with EKVX NSCLC it was 16.7 µM. For the same compound, the TGI in the experiment on HOP-62 NSCLC was 31.4 µM; in the experiment on BT-549 breast, 22.4 µM; with SK-MEL-28 melanoma, 27.5 µM; in the experiment with MDA-MB-435 it was 22.3 µM; with RPMI-8226 leukemia, 9.27 µM; in the experiment on UACC-62 melanoma it was 24.7 µM. Besides, the TGI in the experiment with DU-145 prostate was 28.4 µM; with SW-620 colon, 3.61 µM; in the experiment with OVCAR-3 ovarian it was 4.66 µM; in the experiment with EKVX NSCLC, 30.6 µM.
Turning to `COc1ccc(CNC(C)C(=O)O)cc1` (centres undefined), the TGI in the experiment with HOP-62 NSCLC, in the experiment with BT-549 breast, in the experiment on SK-MEL-28 melanoma, with MDA-MB-435, with RPMI-8226 leukemia and with UACC-62 melanoma was greater than 100 µM throughout. The TGI in the experiment on DU-145 prostate, in the experiment on SW-620 colon, with OVCAR-3 ovarian and with EKVX NSCLC was greater than 100 µM in each case.
With `Cc1cc2nc3ccc(=[N+](C)C)cc-3sc2cc1N`, the GI50 in the experiment with HOP-62 NSCLC is 1.04 µM and 1.55 µM; with BT-549 breast it was 2.75 µM and 2.09 µM; in the experiment on SK-MEL-28 melanoma it was 1.64 µM and 1.65 µM; with MDA-MB-435 it was 0.209 µM and 0.256 µM; with RPMI-8226 leukemia, 0.218 µM and 0.0867 µM; in the experiment on UACC-62 melanoma, 0.541 µM and 1.07 µM. Further, the GI50 with DU-145 prostate is 1.19 µM and 1.69 µM; in the experiment on SW-620 colon, 0.289 µM and 1.13 µM; with OVCAR-3 ovarian, 0.178 µM and 0.26 µM; in the experiment with EKVX NSCLC it was 2.12 µM and 1.72 µM. Also, the TGI in the experiment on HOP-62 NSCLC was 3.2 µM and 28.9 µM and 5.72 µM; with BT-549 breast, 19.7 µM and 25.2 µM and 18.2 µM; in the experiment on SK-MEL-28 melanoma it was 4.65 µM and 27 µM and 3.56 µM; with MDA-MB-435 it was 0.46 µM and 2.18 µM and 0.665 µM; in the experiment with UACC-62 melanoma, 2.21 µM and 5.49 µM and 4.52 µM; in the experiment with SW-620 colon, 1.24 µM and 9.68 µM and 3.05 µM. Besides, the TGI was 0.992 µM and 9.89 µM and 1.25 µM in the experiment with OVCAR-3 ovarian; 9.09 µM and 17.2 µM and 8.02 µM with EKVX NSCLC.
As for `NC(=S)N/N=C/c1ccc(N)cn1`, the TGI in the experiment with HOP-62 NSCLC, in the experiment with BT-549 breast, with SK-MEL-28 melanoma, with MDA-MB-435, with RPMI-8226 leukemia and with UACC-62 melanoma was greater than 10 µM throughout. In addition, the TGI in the experiment with DU-145 prostate was 7.76 µM; with SW-620 colon, greater than 10 µM; in the experiment on OVCAR-3 ovarian, greater than 10 µM; with EKVX NSCLC, greater than 10 µM.
As to `c1ccc(Nc2nc(-c3ccccn3)cs2)nc1`, the GI50 is 0.619 µM with HOP-62 NSCLC; 0.713 µM in the experiment on BT-549 breast; 1.5 µM in the experiment on SK-MEL-28 melanoma; 0.689 µM in the experiment on MDA-MB-435; 0.548 µM in the experiment with RPMI-8226 leukemia; 0.48 µM with UACC-62 melanoma. Further, the GI50 with DU-145 prostate was 0.65 µM; in the experiment on SW-620 colon it was 0.61 µM; with OVCAR-3 ovarian, 0.273 µM; with EKVX NSCLC, 0.507 µM. Also, the TGI was greater than 100 µM with HOP-62 NSCLC; greater than 26 µM with BT-549 breast; greater than 100 µM with SK-MEL-28 melanoma; greater than 53.5 µM in the experiment with MDA-MB-435; 76.2 µM in the experiment with RPMI-8226 leukemia; greater than 43 µM in the experiment with UACC-62 melanoma. Moreover, the TGI in the experiment with DU-145 prostate is greater than 100 µM; in the experiment with SW-620 colon it was 19.9 µM; with OVCAR-3 ovarian it was 19.6 µM; in the experiment on EKVX NSCLC it was greater than 56.9 µM.
For the compound `Nc1ccccc1NC(=O)c1ccc(CN2CCC/C(=C\c3ccccn3)C2=O)cc1`, the GI50 in the experiment with HOP-62 NSCLC is 2.5 µM; in the experiment on BT-549 breast, 3.2 µM; with MDA-MB-435, 0.357 µM; with RPMI-8226 leukemia, 0.686 µM; in the experiment with UACC-62 melanoma it was 0.411 µM; in the experiment on DU-145 prostate, 3.15 µM. For the same compound, the GI50 in the experiment with SW-620 colon was 0.745 µM; with OVCAR-3 ovarian it was 2.37 µM; in the experiment with EKVX NSCLC, 3.75 µM. Moreover, the TGI in the experiment with HOP-62 NSCLC was greater than 100 µM; in the experiment on BT-549 breast, greater than 100 µM; with MDA-MB-435 it was 1.77 µM; in the experiment on RPMI-8226 leukemia, 5.66 µM; in the experiment on UACC-62 melanoma, 2.35 µM; in the experiment on DU-145 prostate, greater than 100 µM. In addition, the TGI in the experiment with SW-620 colon, in the experiment with OVCAR-3 ovarian and in the experiment with EKVX NSCLC was greater than 100 µM in each case.
With `CCCCCCC/C=C/[C@H]1O[C@]2(O)C(=O)C=C3C[C@@H](O[C@@H]4O[C@H](CO)[C@@H](O)C(O)[C@@H]4O)C[C@@H]3[C@H]2C=C1C` (some centres undefined), the GI50 in the experiment on BT-549 breast was 1.18 µM; with SK-MEL-28 melanoma, 3.97 µM; in the experiment on MDA-MB-435 it was 1.21 µM; in the experiment with RPMI-8226 leukemia, 0.711 µM; with UACC-62 melanoma, 1.79 µM; with DU-145 prostate, 3.52 µM. In addition, the GI50 with SW-620 colon was 1.14 µM; with OVCAR-3 ovarian, 1.5 µM; in the experiment with EKVX NSCLC it was 4.82 µM. For the same compound, the TGI was determined as 5.53 µM in the experiment with BT-549 breast; 8.62 µM in the experiment on SK-MEL-28 melanoma; 5.69 µM with MDA-MB-435; 1.98 µM in the experiment with RPMI-8226 leukemia; 6.96 µM in the experiment on UACC-62 melanoma; 7.44 µM in the experiment with DU-145 prostate. In addition, the TGI worked out at 5.49 µM with SW-620 colon, 5.09 µM in the experiment on OVCAR-3 ovarian and 11 µM in the experiment on EKVX NSCLC.
